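Compound exposure: 48 hours, 5 concentrations, 96-well plates. GI50 = concentration required for 50% inhibition of growth.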 The source made the active and inactive calls. Rule as the data show it: active = GI50 up to about 1.1 µM and inactive = higher.
Assays:
Test in all cases: growth of human tumour cells (NCI), 48 h
[1] = tested on: IGROV-1
[2] = tested on: KM12
[3] = tested on: 786-0
[4] = tested on: RXF 393
[5] = tested on: NCI-H23
[6] = tested on: HT-29
[7] = tested on: U-251
[8] = tested on: EKVX
[9] = tested on: HCC 2998
[10] = tested on: MDA-MB-231
[11] = tested on: RPMI-8226
[12] = tested on: SN12C
[13] = tested on: DU-145
[14] = tested on: SK-MEL-28
[15] = tested on: HOP-92
[16] = tested on: OVCAR-4
[17] = tested on: M14
[18] = tested on: UACC-62
[19] = tested on: SF-539
[20] = tested on: NCI-H522

Measured: GI50

C=CC(=O)N1C/C(=C\c2ccc(OC)cc2)C(=O)/C(=C/c2ccc(OC)cc2)C1
inactive: [1] 2.35 µM | [2] 1.93 µM | [3] 1.74 µM | [4] 1.61 µM | [5] 2.01 µM | [7] 1.97 µM | [8] 3.35 µM | [9] 1.5 µM | [10] 3.07 µM | [12] 2.49 µM | [13] 3.91 µM | [14] 2.81 µM | [15] 6.03 µM | [16] 2.36 µM | [17] 2.15 µM | [18] 1.94 µM | [19] 1.71 µM
active: [6] 0.78 µM | [11] 0.247 µM

Nc1nc(O)c2[nH]cnc2[n+]1[O-]
inactive: [1] > 100 µM | [2] > 100 µM | [3] > 100 µM | [4] > 100 µM | [20] > 100 µM | [5] > 100 µM | [6] > 100 µM | [7] > 100 µM | [8] > 100 µM | [10] > 100 µM | [11] > 100 µM | [12] 40.5 µM | [13] > 100 µM | [14] > 100 µM | [15] > 100 µM | [16] > 100 µM | [17] > 100 µM | [18] > 100 µM | [19] > 100 µM

Cc1ccc(O)c(C2=CC3=NNC(=O)C3C(c3cccc(Cl)c3)C2)c1 (stereo unspecified)
inactive: [1] 31.2 µM | [2] 21.8 µM | [3] 52.1 µM | [4] 2.56 µM | [5] 36.7 µM | [6] 25.9 µM | [7] 35.5 µM | [8] 37.3 µM | [9] 20.7 µM | [10] 34.9 µM | [11] 24.4 µM | [12] 32.5 µM | [13] 43.4 µM | [14] 28.1 µM | [15] 24 µM | [16] 12.8 µM | [17] 52 µM | [18] 24.9 µM | [19] 45.2 µM

O=C1/C(=C/c2ccccc2[N+](=O)[O-])N=C(c2ccccc2)N1C1Nc2cc3c(cc2S1)NC(N1C(=O)/C(=C/c2ccccc2[N+](=O)[O-])N=C1c1ccccc1)S3 (stereo unspecified)
inactive: [1] 55.2 µM | [2] 52.4 µM | [3] 22.3 µM | [4] > 100 µM | [20] 17.3 µM | [5] 29 µM | [6] 36.2 µM | [7] 31 µM | [8] 27.7 µM | [9] 16.7 µM | [10] 61.5 µM | [11] 18.1 µM | [13] 30.8 µM | [14] > 100 µM | [15] > 100 µM | [16] 53.5 µM | [17] 68.5 µM | [19] 44.8 µM

OC(c1ccccc1)C(F)(F)c1nc2ccccc2o1 (stereo unspecified)
inactive: [1] > 100 µM | [2] > 100 µM | [3] > 100 µM | [4] > 100 µM | [5] > 100 µM | [6] > 100 µM | [7] > 100 µM | [8] > 100 µM | [9] > 100 µM | [10] > 100 µM | [11] 70 µM | [13] 67.5 µM | [14] > 100 µM | [15] > 100 µM | [16] > 100 µM | [17] > 100 µM | [18] > 100 µM | [19] > 100 µM

CCOC(=O)C1C(=O)CC1(C)C (stereo unspecified)
inactive: [1] > 10 µM | [2] > 10 µM | [3] > 10 µM | [4] > 10 µM | [5] > 10 µM | [6] > 10 µM | [7] > 10 µM | [8] > 10 µM | [9] > 10 µM | [10] > 10 µM | [11] > 10 µM | [12] > 10 µM | [13] > 10 µM | [14] > 10 µM | [15] > 10 µM | [16] > 10 µM | [17] > 10 µM | [18] > 10 µM | [19] > 10 µM

FC(F)(Sc1nc2ccccc2[nH]1)c1nc2ccccc2o1
inactive: [1] > 100 µM | [2] > 100 µM | [3] > 100 µM | [4] > 100 µM | [20] 15.8 µM | [5] > 100 µM | [6] > 100 µM | [7] > 100 µM | [9] > 100 µM | [10] > 100 µM | [11] > 100 µM | [12] > 100 µM | [13] > 100 µM | [14] > 100 µM | [15] > 100 µM | [16] > 100 µM | [17] > 100 µM | [18] > 100 µM | [19] > 100 µM
